Experimental data from US7868135B2, “Compositions of lipopeptide antibiotic derivatives and methods of use thereof” (priority 2003, dated 2011).
Starred links: 1 amine or outer side, 2 acyl side, 3 side chain; linkers in the order of their positions; H or OH if unused. Positions of bridges follow the written chain, without caps; N, C: chain ends. Non-standard residues stand in square brackets, D forms with d. Residues, ends and D or L forms follow the SMILES beside them. ξ: configuration not given here. *: point of attachment. X14 = CC(NC(=O)[C@@H](N)CNC(=O)CCN)C(N[*:1])C(=O)[*:2]; X30 = CC(NC(=O)Cc1ccc(N)cc1)C(N[*:1])C(=O)[*:2]; ξAbu(βξ-NH2) = CC(N[*:3])C(N[*:1])C(=O)[*:2]; X41 = CC(NC(=O)C1CCCCC1)C(N[*:1])C(=O)[*:2]; Lys(Me3) = C[N+](C)(C)CCCC[C@H](N)C(=O)O; Arg(Me2s) = CN=C(NC)NCCC[C@H](N)C(=O)O; Pentadecanoyl = CCCCCCCCCCCCCCC(=O)*; ξAsp(βξ-Me) = CC(C(=O)O)C(N)C(=O)O; Pip = O=C(O)[CH]1CCCCN1; ξD = NC(CC(=O)O)C(=O)O; ξPip = O=C(O)C1CCCCN1; ξV = CC(C)C(N)C(=O)O; ξP = O=C(O)C1CCCN1

System: Staphylococcus aureus (MSSA)
Conditions: 24 h
Outline: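 Broth microdilution MIC per NCCLS M7-A6 with doubling serial dilutions, in cation-adjusted Mueller-Hinton broth supplemented with 0.625 mM calcium.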

Compound | MIC [µg/mL]
CCCCCCCCCCCCCCC(=O)NC(CC(=O)O)C(=O)NC1C(=O)N2CCCCC2C(=O)NC(C(C)C(=O)O)C(=O)NC(CC(=O)O)C(=O)NCC(=O)NC(CC(=O)O)C(=O)NCC(=O)NC(C(C)NC(=O)[C@@H](N)CCC)C(=O)NC(C(C)C)C(=O)N2CCCC2C(=O)NC1C (stereo partly shown) [Compound 163, C15-Amphomycin-9-Nvl] | 8
CCCCCCCCCCCCCCC(=O)NC(CC(=O)O)C(=O)NC1C(=O)N2CCCCC2C(=O)NC(C(C)C(=O)O)C(=O)NC(CC(=O)O)C(=O)NCC(=O)NC(CC(=O)O)C(=O)NCC(=O)NC(C(C)NC(=O)[C@@H](N)CC)C(=O)NC(C(C)C)C(=O)N2CCCC2C(=O)NC1C (stereo partly shown) [Compound 164, C15-Amphomycin-9-Abu] | 4
CCCCCCCCCCCCCCC(=O)NC(CC(=O)O)C(=O)NC1C(=O)N2CCCCC2C(=O)NC(C(C)C(=O)O)C(=O)NC(CC(=O)O)C(=O)NCC(=O)NC(CC(=O)O)C(=O)NCC(=O)NC(C(C)NC(=O)[C@@H](N)CCCNC(N)=O)C(=O)NC(C(C)C)C(=O)N2CCCC2C(=O)NC1C (stereo partly shown) [Compound 165, C15-Amphomycin-9-Cit] | 4
CCCCCCCCCCCCCCC(=O)NC(CC(=O)O)C(=O)NC1C(=O)N2CCCCC2C(=O)NC(C(C)C(=O)O)C(=O)NC(CC(=O)O)C(=O)NCC(=O)NC(CC(=O)O)C(=O)NCC(=O)NC(C(C)NC(=O)[C@@H](N)CCCNC(=NC)NC)C(=O)NC(C(C)C)C(=O)N2CCCC2C(=O)NC1C (stereo partly drawn) [Compound 166, C15-Amphomycin-9-(ME)2Arg] (Pentadecanoyl-[ξD][ξAbu(βξ-NH2)][ξPip][ξAsp(βξ-Me)][ξD]G[ξD]G[ξAbu(βξ-NH2)](Arg(Me2s))[ξV][ξP]; lactam 2-C) | 32
CCCCCCCCCCCCCCC(=O)NC(CC(=O)O)C(=O)NC1C(=O)N2CCCCC2C(=O)NC(C(C)C(=O)O)C(=O)NC(CC(=O)O)C(=O)NCC(=O)NC(CC(=O)O)C(=O)NCC(=O)NC(C(C)NC(=O)[C@@H]2C[C@@H](O)CN2)C(=O)NC(C(C)C)C(=O)N2CCCC2C(=O)NC1C (stereo partly shown) [Compound 167, C15-Amphomycin-9-Hyp] | 4 to 8
CCCCCCCCCCCCCCC(=O)NC(CC(=O)O)C(=O)NC1C(=O)N2CCCCC2C(=O)NC(C(C)C(=O)O)C(=O)NC(CC(=O)O)C(=O)NCC(=O)NC(CC(=O)O)C(=O)NCC(=O)NC(C(C)NC(=O)Cc2ccc(N)cc2)C(=O)NC(C(C)C)C(=O)N2CCCC2C(=O)NC1C (stereo not drawn) [Compound 168, C15-Amphomycin-9-(p-Apa)] (Pentadecanoyl-D[ξAbu(βξ-NH2)][Pip][ξAsp(βξ-Me)]DGDG[X30]VP; lactam 2-C; configuration not given here) | 32 to 64
CCCCCCCCCCCCCCC(=O)NC(CC(=O)O)C(=O)NC1C(=O)N2CCCCC2C(=O)NC(C(C)C(=O)O)C(=O)NC(CC(=O)O)C(=O)NCC(=O)NC(CC(=O)O)C(=O)NCC(=O)NC(C(C)NC(=O)[C@@H](N)C(C)C)C(=O)NC(C(C)C)C(=O)N2CCCC2C(=O)NC1C (stereo partly shown) [Compound 169, C15-Amphomycin-9-Val] | 4
CCCCCCCCCCCCCCC(=O)NC(CC(=O)O)C(=O)NC1C(=O)N2CCCCC2C(=O)NC(C(C)C(=O)O)C(=O)NC(CC(=O)O)C(=O)NCC(=O)NC(CC(=O)O)C(=O)NCC(=O)NC(C(C)NC(=O)[C@@H](N)CCCC[N+](C)(C)C)C(=O)NC(C(C)C)C(=O)N2CCCC2C(=O)NC1C (stereo partly drawn) [Compound 170, C15-Amphomycin-9-(ME)3Lys] (Pentadecanoyl-[ξD][ξAbu(βξ-NH2)][ξPip][ξAsp(βξ-Me)][ξD]G[ξD]G[ξAbu(βξ-NH2)](Lys(Me3))[ξV][ξP]; lactam 2-C) | 2
CCCCCCCCCCCCCCC(=O)NC(CC(=O)O)C(=O)NC1C(=O)N2CCCCC2C(=O)NC(C(C)C(=O)O)C(=O)NC(CC(=O)O)C(=O)NCC(=O)NC(CC(=O)O)C(=O)NCC(=O)NC(C(C)NC(=O)[C@@H](N)CCCC)C(=O)NC(C(C)C)C(=O)N2CCCC2C(=O)NC1C (stereo partly shown) [Compound 171, C15-Amphomycin-9-Nle] | 8
CCCCCCCCCCCCCCC(=O)NC(CC(=O)O)C(=O)NC1C(=O)N2CCCCC2C(=O)NC(C(C)C(=O)O)C(=O)NC(CC(=O)O)C(=O)NCC(=O)NC(CC(=O)O)C(=O)NCC(=O)NC(C(C)NC(=O)CCNC(=O)CCCCN)C(=O)NC(C(C)C)C(=O)N2CCCC2C(=O)NC1C (stereo not drawn) [Compound 173, C15-Amphomycin-9-(β-Ala)-(5-Ava)] | 1
CCCCCCCCCCCCCCC(=O)NC(CC(=O)O)C(=O)NC1C(=O)N2CCCCC2C(=O)NC(C(C)C(=O)O)C(=O)NC(CC(=O)O)C(=O)NCC(=O)NC(CC(=O)O)C(=O)NCC(=O)NC(C(C)NC(=O)CCNC(=O)[C@@H](N)C(C)C)C(=O)NC(C(C)C)C(=O)N2CCCC2C(=O)NC1C (stereo partly drawn) [Compound 174, C15-Amphomycin-9-(β-Ala)-Val] | 2
CCCCCCCCCCCCCCC(=O)NC(CC(=O)O)C(=O)NC1C(=O)N2CCCCC2C(=O)NC(C(C)C(=O)O)C(=O)NC(CC(=O)O)C(=O)NCC(=O)NC(CC(=O)O)C(=O)NCC(=O)NC(C(C)NC(=O)CCCCNC(=O)CCN)C(=O)NC(C(C)C)C(=O)N2CCCC2C(=O)NC1C (stereo not drawn) [Compound 176, C15-Amphomycin-9-(5-Ava)-(β-Ala)] | 4
CCCCCCCCCCCCCCC(=O)NC(CC(=O)O)C(=O)NC1C(=O)N2CCCCC2C(=O)NC(C(C)C(=O)O)C(=O)NC(CC(=O)O)C(=O)NCC(=O)NC(CC(=O)O)C(=O)NCC(=O)NC(C(C)NC(=O)CNC(=O)[C@H](CCCCN)NC(=O)CN)C(=O)NC(C(C)C)C(=O)N2CCCC2C(=O)NC1C (stereo partly drawn) [Compound 190, C15-Amphomycin-9-Gly-Lys-Gly] | 1
CCCCCCCCCCCCCCC(=O)NC(CC(=O)O)C(=O)NC1C(=O)N2CCCCC2C(=O)NC(C(C)C(=O)O)C(=O)NC(CC(=O)O)C(=O)NCC(=O)NC(CC(=O)O)C(=O)NCC(=O)NC(C(C)NC(=O)CNC(=O)[C@H](CCCCN)NC(=O)[C@@H](N)CCCCN)C(=O)NC(C(C)C)C(=O)N2CCCC2C(=O)NC1C (stereo partly drawn) [Compound 191, C15-Amphomycin-9-Gly-Lys-Lys] | 8
CCCCCCCCCCCCCCC(=O)NC(CC(=O)O)C(=O)NC1C(=O)N2CCCCC2C(=O)NC(C(C)C(=O)O)C(=O)NC(CC(=O)O)C(=O)NCC(=O)NC(CC(=O)O)C(=O)NCC(=O)NC(C(C)NC(=O)CNC(=O)CNC(=O)[C@@H](N)CCCCN)C(=O)NC(C(C)C)C(=O)N2CCCC2C(=O)NC1C (stereo partly drawn) [Compound 192, C15-Amphomycin-9-Gly-Gly-Lys] | 0.5 to 1
CCCCCCCCCCCCCCC(=O)NC(CC(=O)O)C(=O)NC1C(=O)N2CCCCC2C(=O)NC(C(C)C(=O)O)C(=O)NC(CC(=O)O)C(=O)NCC(=O)NC(CC(=O)O)C(=O)NCC(=O)NC(C(C)NC(=O)[C@H](CCCCN)NC(=O)CN)C(=O)NC(C(C)C)C(=O)N2CCCC2C(=O)NC1C (stereo partly shown) [Compound 193, C15-Amphomycin-9-Lys-Gly] | 4 to 8
CCCCCCCCCCCCCCC(=O)NC(CC(=O)O)C(=O)NC1C(=O)N2CCCCC2C(=O)NC(C(C)C(=O)O)C(=O)NC(CC(=O)O)C(=O)NCC(=O)NC(CC(=O)O)C(=O)NCC(=O)NC(C(C)NC(=O)[C@H](CCCCN)NC(=O)[C@@H](N)CCCCN)C(=O)NC(C(C)C)C(=O)N2CCCC2C(=O)NC1C (stereo partly shown) [Compound 194, C15-Amphomycin-9-Lys-Lys] | 2
CCCCCCCCCCCCCCC(=O)NC(CC(=O)O)C(=O)NC1C(=O)N2CCCCC2C(=O)NC(C(C)C(=O)O)C(=O)NC(CC(=O)O)C(=O)NCC(=O)NC(CC(=O)O)C(=O)NCC(=O)NC(C(C)NC(=O)[C@H](CCCCN)NC(=O)[C@H](CCCCN)NC(=O)[C@@H](N)CCCCN)C(=O)NC(C(C)C)C(=O)N2CCCC2C(=O)NC1C (stereo partly drawn) [Compound 195, C15-Amphomycin-9-Lys-Lys-Lys] | 4
CCCCCCCCCCCCCCC(=O)NC(CC(=O)O)C(=O)NC1C(=O)N2CCCCC2C(=O)NC(C(C)C(=O)O)C(=O)NC(CC(=O)O)C(=O)NCC(=O)NC(CC(=O)O)C(=O)NCC(=O)NC(C(C)NC(=O)CNC(=O)CCCCCN)C(=O)NC(C(C)C)C(=O)N2CCCC2C(=O)NC1C (stereo not shown) [Compound 197, C15-Amphomycin-9-Gly-Ahx] | 0.25 to 0.5
CCCCCCCCCCCCCCC(=O)NC(CC(=O)O)C(=O)NC1C(=O)N2CCCCC2C(=O)NC(C(C)C(=O)O)C(=O)NC(CC(=O)O)C(=O)NCC(=O)NC(CC(=O)O)C(=O)NCC(=O)NC(C(C)NC(=O)CN(C)C(=O)CCCCCN)C(=O)NC(C(C)C)C(=O)N2CCCC2C(=O)NC1C (stereo not shown) [Compound 198, C15-Amphomycin-9-Sar-Ahx] | 4
CCCCCCCCCCCCCCC(=O)NC(CC(=O)O)C(=O)NC1C(=O)N2CCCCC2C(=O)NC(C(C)C(=O)O)C(=O)NC(CC(=O)O)C(=O)NCC(=O)NC(CC(=O)O)C(=O)NCC(=O)NC(C(C)NC(=O)[C@@H](N)CNC(=O)CCN)C(=O)NC(C(C)C)C(=O)N2CCCC2C(=O)NC1C (stereo partly drawn) [Compound 200, C15-Amphomycin-9-Dap-(β-N-(β-Ala))] (Pentadecanoyl-[ξD][ξAbu(βξ-NH2)][ξPip][ξAsp(βξ-Me)][ξD]G[ξD]G[X14][ξV][ξP]; lactam 2-C) | 1
CCCCCCCCCCCCCCC(=O)NC(CC(=O)O)C(=O)NC1C(=O)N2CCCCC2C(=O)NC(C(C)C(=O)O)C(=O)NC(CC(=O)O)C(=O)NCC(=O)NC(CC(=O)O)C(=O)NCC(=O)NC(C(C)NC(=O)CCCCC)C(=O)NC(C(C)C)C(=O)N2CCCC2C(=O)NC1C (stereo not shown) [Compound 201, C15-Amphomycin-9-C6] | 32
CCCCCCCCCCCCCCC(=O)NC(CC(=O)O)C(=O)NC1C(=O)N2CCCCC2C(=O)NC(C(C)C(=O)O)C(=O)NC(CC(=O)O)C(=O)NCC(=O)NC(CC(=O)O)C(=O)NCC(=O)NC(C(C)NC(=O)CCCCCCC)C(=O)NC(C(C)C)C(=O)N2CCCC2C(=O)NC1C (stereo not shown) [Compound 205, C15-Amphomycin-9-C8] | 16
CCCCCCCCCCCCCCC(=O)NC(CC(=O)O)C(=O)NC1C(=O)N2CCCCC2C(=O)NC(C(C)C(=O)O)C(=O)NC(CC(=O)O)C(=O)NCC(=O)NC(CC(=O)O)C(=O)NCC(=O)NC(C(C)NC(=O)C2CCCCC2)C(=O)NC(C(C)C)C(=O)N2CCCC2C(=O)NC1C (stereo not drawn) [Compound 206, C15-Amphomycin-9-cHexyl] (Pentadecanoyl-D[ξAbu(βξ-NH2)][Pip][ξAsp(βξ-Me)]DGDG[X41]VP; lactam 2-C; configuration not given here) | 8
CCCCCCCCCCCCCCC(=O)NC(CC(=O)O)C(=O)NC1C(=O)N2CCCCC2C(=O)NC(C(C)C(=O)O)C(=O)NC(CC(=O)O)C(=O)NCC(=O)NC(CC(=O)O)C(=O)NCC(=O)NC(C(C)NC(=O)CCC)C(=O)NC(C(C)C)C(=O)N2CCCC2C(=O)NC1C (stereo not shown) [Compound 207, C15-Amphomycin-9-C4] | 16
